From ChEMBL document CHEMBL1131715 (Bioorg Med Chem Lett, 1999)

Experiment: Inhibitory activity against zinc-dependent Glutamate Carboxypeptidase G

SMILES	Ki
CCCCP(O)(=S)N[C@@H](CCC(=O)O)C(=O)O (some centres not stated)	0.264 µM
O=C(O)CC[C@H](NP(O)(=S)c1ccccc1)C(=O)O (some centres not stated)	3.24 µM
